Measurements: patent publication US8350036B2, “Bisnaphthalimidopropyl derivative compounds with anti-parasite and anti-cancer activity” (Universidade Do Porto, priority 2006, dated 2013)
Like-named read-outs stand apart in the source and are kept apart here.

Tests used:
[1] = test system: CaCo-2 colon carcinoma; assay: Cytotoxicity against CaCo-2 cells by MTT assay; type: cell-based; settings: Homo sapiens, 0.01-40 μM
Protocol: Cytotoxity was evaluated for CaCo-2 colon carcinoma using the MTT assay with protocols appropriate for the individual test system.^11,13 CaCo-2 cells were maintained in Earle's Minimum Essential Medium (Sigma), supplemented with 10% fetal calf serum (Biosera), 2 mM L-glutamine (Sigma), 1% non-essential amino acids (Sigma), 100 IU mL^−1 penicillin and 100 μg mL^−1 streptomycin (Sigma). Exponentially growing cells were plated at 2×10^4 cells cm^−2 into 96-well plates and incubated for 24 h before the addition of drugs. Stock solutions of compounds were initially dissolved in 20% DMSO and further diluted with fresh complete medium. After 24 and 48 h of incubation at 37° C., the medium was removed and 200 μl of MTT reagent (1 mg/mL) in serum free medium was added to each well. The plates were incubated at 37° C. for 4 h. At the end of the incubation period, the medium was removed and pure DMSO (200 μl) was added to each well. The metabolized MTT product dissolved in DMSO was quantified by reading the absorbance at 560 nm on a micro plate reader (Dynex Technologies, USA). IC50 values are defined, as the drug concentrations required to reduce the absorbance by 50% of the control values. The IC50 values were calculated from the equation of the logarithmic line determined by fitting the best line (Microsoft Excel) to the curve formed from the data. The IC50 value was obtained from the equation for y=50 (50% value).

[2] = test system: Leishmania infantum promastigotes; assay: Growth of luciferase-expressing promastigotes (luciferase assay); type: cell-based; settings: for IC50: Leishmania infantum; for parasite growth inhibition, promastigote: range of concentration 0.39 to 12.50 μM, FIG. 1
Protocol: Leishmania infantum (clone MHOM/MA671TMA-P263) promastigotes transfected with reporter gene that encode to the luciferase enzyme (Roy et al, 2000) were grown at 27° C. in RPMI medium (Gibco) supplemented with 10% of heat inactivated fetal bovine serum (FBS-Gibco), 2 mM L-glutamine (Gibco), 20 mM Hepes (Gibco), 100 U/ml penicillin (Gibco) and 100 μg/ml streptomycin (Gibco). The parasites (10^6/ml) in the logarithmic phase (2 days of culture) were incubated with a serial range of concentrations of each drug for 3 days at 27° C. and the growth of parasites was determined by using the luciferase activity using luciferin as subtract.
FIG. 1. […] The results are representative of 5 assays made independently. […] The growth curves represented indicate the percentage growth related to the control for each concentration after luciferase activity determination. Each point represents a mean of 3 assays±STD.
(§1) Cytotoxicity determined by luciferase assay. The results were obtained after treatment of different parasite forms with a range of different drug concentrations 0.30 to 100 μM after 72 h of incubation. The results were representative of medium±SD at least 5 assays.

[3] = test system: intracellular amastigotes of L. infantum; assay: Intracellular amastigotes in differentiated THP-1 cells (luciferase assay); type: cell-based, Leishmania infantum; settings: for IC50: Leishmania infantum, intracellular amastigotes in THP-1 cells, 72 h of incubation, read-out: IC50(μM) Amastigote intracellular; for parasite growth inhibition, intracellular amastigote: range of concentration 0.39 to 12.50 μM
Protocol: (§2) The axenic amastigote of Leishmania infantum (clone MHOM/MA671TMA-P263) transfected with reporter gene that encode to the luciferase enzyme (Roy et al, 2000) were grown at 37° C. with 5% CO2 in a cell-free medium called MAA (medium for axenically grown amastigote). The medium MAA/20, consisted of modified medium 199 (Hanks' balanced salts) supplemented with 0.5% soya trypto-casein, 15 mM D-glucose, 5 mM L-glutamine, 4 mM NaHCO3, 0.023 mM bovine hemin, 25 mM HEPES final pH, 6.5 and 20% inactivated fetal calf serum. The parasites were incubated with different concentrations during 3 days at 37° C. with 5% CO2. The growth of the parasites was done by measuring the luciferase activity using luciferin as a substract. The intracellular amastigotes of L. infantum were cultured in a macrophage differentiated human leukemia monocyte cell line (THP-1 cells). The THP-1 cells were differentiated during 2 days with 20 ng/ml of PMA in RPMI-1640 medium supplemented with 10% FCS, 2 mM glutamine, 100 IU of penicillin/ml and 100 μg/ml of streptomycin. The non differentiated cells were washed with prewarmed medium and the adherent cells sinfected with luciferase-expressing axenic amastigotes at a parasite/macrophage ratio of 3:1 for 4 h at 37° C. with 5% CO2. Noninternalized parasites were removed and serial dilutions of each drug were made in the RPMI medium supplemented with 10% FCS. After 3 days of drug exposure, wells containing adherent differentiated THP-1 cells were washed and luciferase activity was determined.
Cytotoxicity determined by luciferase assay. […] The results were representative of medium±SD at least 5 assays.

[4] = test system: axenic amastigote of Leishmania infantum; assay: Growth of luciferase-expressing axenic amastigotes (luciferase assay); type: cell-based; settings: for parasite growth inhibition, axenic amastigote: FIG. 1; for IC50: Leishmania infantum, axenic amastigotes, 72 h of incubation, 37° C.
Protocol: as §2
FIG. 1. […] The results are representative of 5 assays made independently. The promastigote and axenic amastigote were incubated with a serial range of drug concentrations 0.30 to 12.5 μM, at 27° C. and 3.125 to 100 μM at 37° C. in 5% CO2, respectively, during 3 days. The growth curves represented indicate the percentage growth related to the control for each concentration after luciferase activity determination. Each point represents a mean of 3 assays±STD.
as §1

[5] = most solvents; previously reported (Kong et al, 2000); cited from earlier work
[6] = Solubility; type: physicochemical; settings: effect of longer alkyl central chain
[7] = 24 h drug exposure, read-out: IC50 (μM) 24 h
[8] = 48 h drug exposure, read-out: IC50 (μM) 48 h
[9] = promastigote, unit inferred, read-out: IC50±SD promastigote
[10] = promastigotes, 72 h of incubation, 27° C., read-out: IC50(μM) Promastigotes

Row | SMILES | IC50 [1, 7] [µM] | IC50 [1, 8] [µM] | IC50 [2, 9] [µM] | IC50 [2, 10] [µM] | parasite growth inhibition, promastigote [2] | IC50 [3] [µM] | parasite growth inhibition, intracellular amastigote [3] | parasite growth inhibition, axenic amastigote [4] | IC50 [4] [µM] | solubility [5] | aqueous solubility [6]
1 | O=C1c2cccc3cccc(c23)C(=O)N1CCCNCCCCCCCNCCCN1C(=O)c2cccc3cccc(c23)C1=O [BNIPDahep, Bisnaphthalimidopropyldiaminoheptane] | 3.2 | 0.94 | – | – | – | – | – | – | – | – | –
2 | O=C1c2cccc3cccc(c23)C(=O)N1CCCNCCCNCCCNCCCN1C(=O)c2cccc3cccc(c23)C1=O [BNIPDpta, Bisnaphthalimidopropyldipropiltriamine] | 5 | 3.2 | 1.09 ± 0.12 | 1.09 ± 0.12 | dose dependent inhibition of parasite growth | 4.22 ± 1.07 | dose dependent inhibition of parasite growth | dose dependent inhibition of parasite growth | 5.24 ± 0.93 | – | –
3 | O=C1c2cccc3cccc(c23)C(=O)N1CCCNCCCCNCCCN1C(=O)c2cccc3cccc(c23)C1=O [BNIPPut, Bisnaphthalimidopropylputrescine] | – | – | 0.4 ± 0.15 | 0.4 ± 0.15 | dose dependent inhibition of parasite growth | 4.53 ± 0.54 | dose dependent inhibition of parasite growth | dose dependent inhibition of parasite growth | 5.49 ± 0.67 | not soluble in most solvents | –
4 | O=C1c2cccc3cccc(c23)C(=O)N1CCCNCCCCNCCCNCCCN1C(=O)c2cccc3cccc(c23)C1=O [BNIPSpd, Bisnaphthalimidopropylespermidine] | 0.15 | 0.47 | 1.86 ± 0.82 | 1.86 ± 0.82 | dose dependent inhibition of parasite growth | 8.92 ± 1.07 | dose dependent inhibition of parasite growth | dose dependent inhibition of parasite growth | 9.61 ± 1.84 | – | –
5 | O=C1c2cccc3cccc(c23)C(=O)N1CCCNCCCCCCCCNCCCN1C(=O)c2cccc3cccc(c23)C1=O [BNIPDaoct, Bisnaphthalimidopropyldiaminooctane] | 6.2 | 3.2 | ≤ 0.39 | ≤ 0.39 | dose dependent inhibition of parasite growth | 2.43 ± 0.19 | dose dependent inhibition of parasite growth | didn't inhibited the parasite growth up to 50 μM | ≥ 50 | – | helps aqueous solubility
6 | O=C1c2cccc3cccc(c23)C(=O)N1CCCNCCCCCCNCCCN1C(=O)c2cccc3cccc(c23)C1=O [BNIPDahex, Bisnaphthalimidopropyldiaminohexane] | 0.65 | 2 | – | – | – | – | – | – | – | – | –
7 | O=C1c2cccc3cccc(c23)C(=O)N1CCCNCCCCCCCCCCNCCCN1C(=O)c2cccc3cccc(c23)C1=O [BNIPDadec, Bisnaphthalimidopropyldiaminodecane] | 0.77 | 0.36 | – | – | – | – | – | – | – | – | helps aqueous solubility
8 | O=C1c2cccc3cccc(c23)C(=O)N1CCCNCCCCCCCCCCCCNCCCN1C(=O)c2cccc3cccc(c23)C1=O [BNIPDadod, Bisnaphthalimidopropyldiaminododecane] | 4.5 | 2.7 | – | – | – | – | – | – | – | – | –
9 | O=C1c2cccc3cccc(c23)C(=O)N1CCCNCCCCCNCCCN1C(=O)c2cccc3cccc(c23)C1=O [BNIPDapen, Bisnaphthalimidopropyldiaminopentane] | 11 | 6.5 | – | – | – | – | – | – | – | – | –
10 | O=C1c2cccc3cccc(c23)C(=O)N1CCCNCCCCCCCCCNCCCN1C(=O)c2cccc3cccc(c23)C1=O [BNIPDanon, Bisnaphthalimidopropyldiaminononane] | 3.6 | 0.67 | 2.09 ± 0.54 | 2.09 ± 0.54 | dose dependent inhibition of parasite growth | 6.03 ± 0.67 | dose dependent inhibition of parasite growth | dose dependent inhibition of parasite growth | 17.4 ± 0.97 | – | helps aqueous solubility
11 | O=C1c2cccc3cccc(c23)C(=O)N1CCCNCCNCCNCCCN1C(=O)c2cccc3cccc(c23)C1=O [BNIPDeta, Bisnaphthalimidopropyldietiltriamine] | 21.7 | 22.3 | 0.96 ± 0.17 | 0.96 ± 0.17 | dose dependent inhibition of parasite growth | 9.52 ± 0.56 | dose dependent inhibition of parasite growth | dose dependent inhibition of parasite growth | 6.97 ± 0.2 | – | –
